Test results published in patent US12162867B2, “Inhibitors of RNA helicase DHX9 and uses thereof” (ACCENT THERAPEUTICS, INC., priority 2022, dated 2024).
Where two headings read alike, the source gives them in different places.

How the values were obtained:
[1] = system: circBRIP1 in HCT116 cells; assay: DHX9 circBRIP1 cellular target engagement TaqMan Multiplex assay (qPCR); format: cell-based; conditions: Homo sapiens, read-out: DHX9 Cellular Target Engagement EC50
NCI-H747 cells = assay: DHX9 cellular proliferation assay (CellTiter-Glo), NCI-H747 (CRC-MSS); format: cell-based; conditions: Homo sapiens, performed at Pharmaron, read-out: H747 (CRC-MSS) Antiproliferative IC50
LS411N cells = assay: DHX9 cellular proliferation assay (CellTiter-Glo), LS411N (CRC-MSI); format: cell-based; conditions: Homo sapiens, LS-411N, LS411N, performed at Pharmaron, read-out: LS411N (CRC-MSI-H) Antiproliferative IC50
[2] = system: circBRIP1 in HCT116 cells; assay: DHX9 circBRIP1 cellular target engagement SYBR Green assay (qPCR); format: cell-based; conditions: Homo sapiens, HCT-116, circBRIP1, HCT116 cells; SyBr assay (marked ^+); read-out: DHX9 Cellular Target Engagement EC50
[3] = target: T1, Human recombinant DHX9 protein (Homo sapiens, UniProt Q08211); assay: DHX9 ATPase assay (ADP-Glo); format: biochemical; conditions: inflection point of dose-response curve, read-out: DHX9 Biochemical Inflection Point
T1 construct: purchased Viva
T1 sequence (Q08211 whole entry): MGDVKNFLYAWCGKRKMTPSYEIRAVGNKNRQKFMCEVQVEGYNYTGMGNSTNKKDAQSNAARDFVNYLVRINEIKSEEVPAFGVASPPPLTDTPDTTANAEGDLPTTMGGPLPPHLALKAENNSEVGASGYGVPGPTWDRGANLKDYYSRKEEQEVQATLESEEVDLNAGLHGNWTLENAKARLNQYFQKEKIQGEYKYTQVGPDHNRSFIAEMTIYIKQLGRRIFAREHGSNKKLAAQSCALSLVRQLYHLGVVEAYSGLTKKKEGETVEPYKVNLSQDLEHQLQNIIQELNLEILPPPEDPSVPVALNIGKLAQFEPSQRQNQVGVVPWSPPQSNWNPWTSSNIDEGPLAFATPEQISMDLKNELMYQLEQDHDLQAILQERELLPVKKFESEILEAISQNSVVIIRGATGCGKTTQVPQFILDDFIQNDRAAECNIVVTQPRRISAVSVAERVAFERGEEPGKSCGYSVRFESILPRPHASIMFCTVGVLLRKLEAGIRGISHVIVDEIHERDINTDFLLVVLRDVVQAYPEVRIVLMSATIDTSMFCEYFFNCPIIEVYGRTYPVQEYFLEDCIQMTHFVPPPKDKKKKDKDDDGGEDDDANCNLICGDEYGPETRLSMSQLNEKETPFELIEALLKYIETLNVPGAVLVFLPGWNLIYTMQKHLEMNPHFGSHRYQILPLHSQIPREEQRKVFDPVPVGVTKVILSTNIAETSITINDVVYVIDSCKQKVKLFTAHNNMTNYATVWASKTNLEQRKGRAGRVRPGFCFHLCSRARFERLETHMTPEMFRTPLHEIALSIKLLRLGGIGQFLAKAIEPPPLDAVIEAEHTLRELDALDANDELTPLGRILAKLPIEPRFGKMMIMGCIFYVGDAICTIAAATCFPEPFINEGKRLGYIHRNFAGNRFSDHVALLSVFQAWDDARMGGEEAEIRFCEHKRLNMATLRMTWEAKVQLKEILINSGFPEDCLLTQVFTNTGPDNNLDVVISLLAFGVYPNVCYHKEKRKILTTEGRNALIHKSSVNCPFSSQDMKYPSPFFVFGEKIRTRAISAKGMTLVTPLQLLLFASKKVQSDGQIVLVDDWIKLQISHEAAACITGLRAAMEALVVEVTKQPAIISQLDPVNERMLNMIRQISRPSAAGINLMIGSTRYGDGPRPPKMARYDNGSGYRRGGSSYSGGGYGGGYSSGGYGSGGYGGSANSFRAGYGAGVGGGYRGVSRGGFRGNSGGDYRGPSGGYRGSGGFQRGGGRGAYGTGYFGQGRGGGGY

[4] = HCT-116, circBRIP1, HCT116 cells, * Taqman assay was used
[5] = HCT-116, 72 h, circBRIP1, HCT116 cells, 72 hours, Taqman assay (marked *)

Row | Structure (SMILES) | EC50 [1, 4] [nM] | IC50 (NCI-H747 cells; NCI-H747, NCI-H747) [nM] | IC50 (LS411N cells) [nM] | other results
1 | Cc1sc(C(=O)Nc2cc(Cl)cc(NS(C)(=O)=O)c2)cc1-c1ncc(N2CCC3(COC3)C2)cc1F [Example 512] | 17.6 | 6720 | 107 | –
2 | COc1cnc(-c2cc(C(=O)Nc3cc(Cl)cc(NS(C)(=O)=O)c3)cn2C)c(F)c1 [Example 454] | 18.2 | 5810 | 218 | –
3 | Cc1sc(C(=O)Nc2cc(Cl)cc(NS(C)(=O)=O)c2)cc1-c1ncc(OC(C)(C)C)cn1 [Example 559] | 42.5 | 3370 | 74 | –
4 | Cn1cc(C(=O)Nc2cc(Cl)cc(NS(C)(=O)=O)c2)cc1-c1ccc(N2CC(C(F)(F)F)C2)cn1 [Example 497] | 43.7 | 2490 | 169 | –
5 | CC(C)(C)Oc1cnc(-c2csc(C(=O)Nc3cc(Cl)cc(NS(C)(=O)=O)c3)c2)nc1 [Example 379] | – | – | – | EC50 [1, 5]: 56.6 nM; IC50 (NCI-H747 cells; NCI-H747, NCI-H747, CRC-MSS): 4710 nM; IC50 (LS411N cells; CRC-MSI-H): 83 nM
6 | Cc1sc(C(=O)Nc2cc(F)cc(NS(C)(=O)=O)c2)cc1-c1ncc(N2CC(C(F)(F)F)C2)cc1F [Example 501] | 93.3 | 7260 | 274 | –
7 | Cc1ncc(OCc2cc(F)cc(F)c2)c(-c2cc(C(=O)Nc3cc(Cl)cc(NS(C)(=O)=O)c3)cn2C)n1 [Example 734] | 3 | 6170 | 10.6 | –
8 | COC(=O)N1CCN(c2ccc(-c3cc(C(=O)Nc4cc(Cl)cc(NS(C)(=O)=O)c4)cn3C)nc2)CC1 [Example 596] | 38 | 9880 | 172 | –
9 | CCS(=O)(=O)Nc1cc(Cl)cc(NC(=O)c2cc(-c3ncc(F)cc3OC)c(C)s2)c1 [Example 354] | – | – | – | EC50 [1, 5]: 34.5 nM; IC50 (NCI-H747 cells; NCI-H747, NCI-H747, CRC-MSS): 8060 nM; IC50 (LS411N cells; CRC-MSI-H): 71.5 nM
10 | Cc1sc(C(=O)Nc2cc(Cl)cc(NS(C)(=O)=O)c2)cc1-c1ccc(N2CCC(F)(F)C2)cn1 [Example 485] | 12.4 | 2060 | 58.3 | –
11 | CS(=O)(=O)Nc1cc(Cl)cc(NC(=O)c2cnn([C@@H]3CCCC[C@H]3O)c2)c1 (single isomer, unassigned) [Example 150, N-(3-chloro-5-(methylsulfonamido)phenyl)-1-(trans-2-hydroxycyclohexyl)-1H-pyrazole-4-carboxamide] | – | – | – | EC50 [2]: 6560 nM; IC50 [3]: 147 nM
12 | Cn1cc(C(=O)Nc2cc(Cl)cc(NS(C)(=O)=O)c2)cc1-c1ncc(N2CCC3(CC2)COC3)cc1F [Example 475] | 31.5 | 8770 | 81.2 | –
13 | Cn1cc(C(=O)Nc2cc(Cl)cc(NS(C)(=O)=O)c2)cc1-c1ncc(F)cc1F [Example 540, N-(3-chloro-5-methanesulfonamidophenyl)-5-(3,5-difluoropyridin-2-yl)-1-methyl-1H-pyrrole-3-carboxamide] | – | 7910 | 175 | EC50 ([1]; HCT-116, circBRIP1, HCT116 cells, cell carries no mark, SyBr or Taqman not indicated): 74.1 nM
14 | Cc1sc(C(=O)Nc2cc(Cl)cc(NS(C)(=O)=O)c2)cc1-c1ncc(N2CCCC(F)(F)C2)cc1F [Example 482] | 35.6 | 1140 | 66.8 | –
15 | Cc1sc(C(=O)Nc2cc(Cl)cc(NS(C)(=O)=O)c2)cc1-c1ncc(C2(F)COC2)cn1 [Example 680] | 31 | 8760 | 208 | –
16 | Cc1sc(C(=O)Nc2cc(Cl)cc(NS(C)(=O)=O)c2)cc1-c1ncc(N2CC(F)(F)C2)cc1F [Example 532, N-(3-chloro-5-methanesulfonamidophenyl)-4-[5-(3,3-difluoroazetidin-1-yl)-3-fluoropyridin-2-yl]-5-methylthiophene-2-carboxamide] | 30.1 | 4200 | 100 | –
17 | Cc1sc(C(=O)Nc2cc(Cl)cc(NS(C)(=O)=O)c2)cc1-c1ncc(OC2CN(C)C2)cn1 [Example 609, N-(3-chloro-5-methanesulfonamidophenyl)-5-methyl-4-{5-[(1-methylazetidin-3-yl)oxy]pyrimidin-2-yl}thiophene-2-carboxamide] | 4.7 | > 10000 | 658 | –
18 | CN1CC(Oc2cnc(-c3cc(C(=O)Nc4cc(Cl)cc(NS(C)(=O)=O)c4)cn3CC(F)(F)F)nc2)C1 [Example 613] | 116 | > 10000 | 173 | –
19 | Cn1cc(C(=O)Nc2cc(Cl)cc(NS(C)(=O)=O)c2)cc1-c1ncc(N2CC(F)C2)cc1F [Example 466] | 52.4 | 4850 | 350 | –
20 | Cn1cc(C(=O)Nc2cc(Cl)cc(NS(C)(=O)=O)c2)cc1-c1ncc(OC(C)(C)C)cn1 [Example 556] | 54.5 | 4520 | 74.9 | –
21 | Cn1cc(C(=O)Nc2cc(Cl)cc(NS(C)(=O)=O)c2)cc1-c1ncc(N2CCC(F)(F)C2)cn1 [Example 526] | 29.3 | > 10000 | 133 | –
